Experimental data from PubChem BioAssay (NCI).
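A five-concentration, 48-hour dose response in 96-well plates underlies each endpoint, interpolated linearly between surrounding concentrations. The concentration for 50% growth inhibition is given as GI50. TGI is the concentration that stops growth completely.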

Key:
Assay in all cases: NCI anticancer screen, dose series, 48 h
TK-10 renal = test system: TK-10 renal
U251 CNS = test system: U251 CNS
OVCAR-3 ovarian = test system: OVCAR-3 ovarian
NCI-H522 lung = test system: NCI-H522 lung
SNB-19 CNS = test system: SNB-19 CNS
HCT-15 colon = test system: HCT-15 colon
NCI-H460 lung = test system: NCI-H460 lung
IGROV1 ovarian = test system: IGROV1 ovarian
SR leukemia = test system: SR leukemia
ACHN renal = test system: ACHN renal

O=S1(=O)CCC2=CC(C(F)(F)F)=CC(C(F)(F)F)=CN21
TGI (TK-10 renal): 2.13 µM
TGI (U251 CNS): 3.43 µM
TGI (OVCAR-3 ovarian): 3.14 µM
TGI (NCI-H522 lung): 0.601 µM
TGI (SNB-19 CNS): 6.08 µM
TGI (HCT-15 colon): 1.5 µM
TGI (NCI-H460 lung): 8.01 µM
TGI (IGROV1 ovarian): 3.66 µM
TGI (SR leukemia): 1.82 µM
TGI (ACHN renal): 1.11 µM

Cc1nc(C(=O)OCc2ccccc2)cc(OCc2ccccc2)c1C
GI50 (TK-10 renal): 50.4 µM
TGI (TK-10 renal): > 100 µM
GI50 (U251 CNS): 17.6 µM
TGI (U251 CNS): 48.2 µM
GI50 (OVCAR-3 ovarian): 11.4 µM
TGI (OVCAR-3 ovarian): 26.2 µM
GI50 (NCI-H522 lung): 15.5 µM
TGI (NCI-H522 lung): 37 µM
GI50 (SNB-19 CNS): 27.8 µM
TGI (SNB-19 CNS): > 82.8 µM
GI50 (HCT-15 colon): 18.6 µM
TGI (HCT-15 colon): > 60.6 µM
GI50 (NCI-H460 lung): 22.7 µM
TGI (NCI-H460 lung): 54.5 µM
GI50 (IGROV1 ovarian): 21.4 µM
TGI (IGROV1 ovarian): 47.7 µM
TGI (SR leukemia): 28.6 µM
GI50 (ACHN renal): 20.9 µM
TGI (ACHN renal): 60.2 µM

COC1CCC(OC)C(c2nc3sccn3c2/C=N/N=C(N)N)C1 (centres undefined)
GI50 (TK-10 renal): > 52.1 µM
TGI (TK-10 renal): > 81.4 µM
GI50 (U251 CNS): 38.7 µM
TGI (U251 CNS): 73.4 µM
GI50 (OVCAR-3 ovarian): 7.76 µM
TGI (OVCAR-3 ovarian): 36.3 µM
GI50 (NCI-H522 lung): 30.4 µM
TGI (NCI-H522 lung): > 72.2 µM
GI50 (SNB-19 CNS): 33.8 µM
TGI (SNB-19 CNS): > 96.4 µM
GI50 (HCT-15 colon): > 100 µM
TGI (HCT-15 colon): > 100 µM
GI50 (NCI-H460 lung): 27.7 µM
TGI (NCI-H460 lung): > 76.5 µM
GI50 (IGROV1 ovarian): 50 µM
TGI (IGROV1 ovarian): > 100 µM
GI50 (SR leukemia): 0.0201 µM
TGI (SR leukemia): 15 µM
GI50 (ACHN renal): > 100 µM
TGI (ACHN renal): > 100 µM

O=C(C#Cc1ccccc1)NC/C=C/c1ccccc1
TGI (TK-10 renal): > 100 µM
TGI (U251 CNS): > 100 µM
TGI (OVCAR-3 ovarian): > 100 µM
TGI (NCI-H522 lung): 96.6 µM
TGI (SNB-19 CNS): 79.9 µM
TGI (HCT-15 colon): > 100 µM
TGI (NCI-H460 lung): > 100 µM
TGI (IGROV1 ovarian): > 100 µM
TGI (SR leukemia): > 100 µM
TGI (ACHN renal): > 100 µM

Cc1cc(C)nc(NC(=O)COc2ccc(Cl)cc2)c1
TGI (TK-10 renal): > 100 µM
TGI (U251 CNS): > 100 µM
TGI (OVCAR-3 ovarian): > 100 µM
TGI (NCI-H522 lung): > 100 µM
TGI (SNB-19 CNS): > 100 µM
TGI (HCT-15 colon): > 100 µM
TGI (NCI-H460 lung): > 100 µM
TGI (IGROV1 ovarian): > 100 µM
TGI (SR leukemia): > 100 µM
TGI (ACHN renal): > 100 µM

C/C(=N\NC(=S)N1CCCC1)c1ccccn1
GI50 (TK-10 renal): 0.105 µM
TGI (TK-10 renal): 13.7 µM
GI50 (U251 CNS): < 0.01 µM
TGI (U251 CNS): 11.9 µM
GI50 (OVCAR-3 ovarian): < 0.01 µM
TGI (OVCAR-3 ovarian): 12.1 µM
GI50 (NCI-H522 lung): 0.171 µM
TGI (NCI-H522 lung): 6.09 µM
GI50 (SNB-19 CNS): 0.112 µM
TGI (SNB-19 CNS): 14.7 µM
GI50 (HCT-15 colon): < 0.01 µM
TGI (HCT-15 colon): 18.9 µM
GI50 (NCI-H460 lung): < 0.01 µM
TGI (NCI-H460 lung): 7.06 µM
GI50 (IGROV1 ovarian): < 0.01 µM
TGI (IGROV1 ovarian): 5.09 µM
GI50 (SR leukemia): < 0.01 µM
TGI (SR leukemia): > 49.9 µM
GI50 (ACHN renal): < 0.01 µM
TGI (ACHN renal): 7.53 µM

COc1ccc2c(c1)[n+](=O)c(/C=C/C(=O)c1cc(OC)c(OC)c(OC)c1)c(C)n2[O-]
GI50 (TK-10 renal): 8.74 µM
TGI (TK-10 renal): > 100 µM
GI50 (U251 CNS): 5.94 µM
TGI (U251 CNS): 47 µM
GI50 (OVCAR-3 ovarian): 2.04 µM
TGI (OVCAR-3 ovarian): 11.7 µM
GI50 (NCI-H522 lung): 1.32 µM
TGI (NCI-H522 lung): 3.45 µM
GI50 (SNB-19 CNS): 29.7 µM
TGI (SNB-19 CNS): > 100 µM
GI50 (HCT-15 colon): 3.79 µM
TGI (HCT-15 colon): 23.2 µM
GI50 (NCI-H460 lung): 13.3 µM
TGI (NCI-H460 lung): 45.5 µM
GI50 (IGROV1 ovarian): 18.2 µM
TGI (IGROV1 ovarian): > 100 µM
GI50 (SR leukemia): 0.644 µM
TGI (SR leukemia): 2.41 µM
GI50 (ACHN renal): 5.66 µM
TGI (ACHN renal): 23.6 µM

COc1ccc(C(=O)c2ccccc2)c(O)c1
GI50 (TK-10 renal): > 100 µM
TGI (TK-10 renal): > 100 µM
GI50 (U251 CNS): 66.3 µM
TGI (U251 CNS): > 100 µM
GI50 (OVCAR-3 ovarian): > 100 µM
TGI (OVCAR-3 ovarian): > 100 µM
GI50 (NCI-H522 lung): 89.9 µM
TGI (NCI-H522 lung): > 100 µM
GI50 (SNB-19 CNS): > 100 µM
TGI (SNB-19 CNS): > 100 µM
GI50 (HCT-15 colon): 80.7 µM
TGI (HCT-15 colon): > 100 µM
GI50 (NCI-H460 lung): 88.4 µM
TGI (NCI-H460 lung): > 100 µM
GI50 (IGROV1 ovarian): > 100 µM
TGI (IGROV1 ovarian): > 100 µM
GI50 (SR leukemia): 45.7 µM
TGI (SR leukemia): > 100 µM
GI50 (ACHN renal): > 100 µM
TGI (ACHN renal): > 100 µM

Cc1nc(Nc2ccc(Cl)cc2)sc1C(=O)Nc1cccc2c(=O)[nH][nH]c(=O)c12
TGI (TK-10 renal): > 100 µM
TGI (U251 CNS): > 100 µM
TGI (OVCAR-3 ovarian): 40.4 µM
TGI (NCI-H522 lung): 75.5 µM
TGI (SNB-19 CNS): > 100 µM
TGI (HCT-15 colon): 71.3 µM
TGI (NCI-H460 lung): 88.6 µM
TGI (IGROV1 ovarian): 83.5 µM
TGI (SR leukemia): 64.8 µM
TGI (ACHN renal): > 100 µM
